Experimental data published in patent publication US11667645B2, “Granzyme B directed imaging and therapy” (CytoSite Biopharma Inc., priority 2018, dated 2023).

Target: Granzyme B (human lymphocytes) (Homo sapiens (Human), UniProt P10144)
Experiment: human Granzyme B biochemical assay
Settings: Granzyme B (human lymphocytes) 5 nM, substrate Ac-IETD-AFC 200 μM, Cpd incubation with enzyme 30 mins, 22° C., read time 60 mins; read-out: IC50
Outline: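 Enzyme (10 nM working stock, assay buffer with 0.1% BSA) pre-incubated with compound for 30 min at 22 °C, then Ac-IETD-AFC (800 µM working stock) added for 60 min at 22 °C in the dark. Fluorescence read at Ex 400/Em 505 nm; 8-point 3.16-fold series (40 µM top working stock); IC50 from % inhibition versus standard-inhibitor and DMSO controls.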

Chain of Granzyme B (human lymphocytes) (P10144 21-247): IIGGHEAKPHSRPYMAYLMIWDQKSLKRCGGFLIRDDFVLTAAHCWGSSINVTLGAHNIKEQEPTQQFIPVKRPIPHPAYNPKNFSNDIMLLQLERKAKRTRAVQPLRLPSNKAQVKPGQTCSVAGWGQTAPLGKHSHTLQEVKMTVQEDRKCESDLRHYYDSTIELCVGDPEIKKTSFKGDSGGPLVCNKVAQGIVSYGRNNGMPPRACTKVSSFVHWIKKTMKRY

| Structure (SMILES) | IC50 |
| --- | --- |
| CC[C@H](C)[C@H](NC(=O)COCCF)C(=O)N[C@H]1CN(C)c2cccc3c2N(C1=O)[C@H](C(=O)NCc1c[nH]nn1)C3 [Compound C144, (3S,6S)-3-{(2S,3S)-2-[2-(2-Fluoro-ethoxy)-acetylamino]-3-methyl-pentanoylamino}-1-methyl-4-oxo-1,2,3,4,6,7-hexahydro-[1,4]diazepino[3,2,1-hi]indole-6-carboxylic acid (1H-[1,2,3]triazol-4-ylmethyl)-amide] | 1 to 300 nM |
| CC[C@H](C)[C@H](NC(=O)Cc1csc2ccccc12)C(=O)N[C@H]1COc2cccc3c2N(C1=O)[C@H](C(=O)NCc1c[nH]nn1)C3 [Compound C146, (1S,8S)-8-[(2S,3S)-2-(2-Benzo[b]thiophen-3-yl-acetylamino)-3-methyl-pentanoylamino]-9-oxo-1,2,8,9-tetrahydro-7H-6-oxa-9a-aza-benzo[cd]azulene-1-carboxylic acid (1H-[1,2,3]triazol-4-ylmethyl)-amide] | 1 to 300 nM |
| N[C@H]1CCc2cccc3c2N(C1=O)[C@H](C(=O)NCc1c[nH]nn1)C3 [Compound C147, (2S,5S)-5-Amino-4-oxo-1,2,4,5,6,7-hexahydro-azepino[3,2,1-hi]indole-2-carboxylic acid (1H-[1,2,3]triazol-4-ylmethyl)-amide] | > 5000 nM |
| CC(=O)N[C@H]1CCc2cccc3c2N(C1=O)[C@H](C(=O)NCc1c[nH]nn1)C3 [Compound C148, (2S,5S)-5-Acetylamino-4-oxo-1,2,4,5,6,7-hexahydro-azepino[3,2,1-hi]indole-2-carboxylic acid (1H-[1,2,3]triazol-4-ylmethyl)-amide] | > 5000 nM |
| CC[C@H](C)[C@H](NC(=O)COCCF)C(=O)N[C@H]1CCc2cccc3c2N(C1=O)[C@H](C(=O)NCc1ccn[nH]1)C3 [Compound C149, (2S,5S)-5-{(2S,3S)-2-[2-(2-Fluoro-ethoxy)-acetylamino]-3-methyl-pentanoylamino}-4-oxo-1,2,4,5,6,7-hexahydro-azepino[3,2,1-hi]indole-2-carboxylic acid (2H-pyrazol-3-ylmethyl)-amide] | > 5000 nM |
| CC[C@H](C)[C@H](NC(=O)Cc1cc2ccccc2s1)C(=O)N[C@H]1CCc2cccc3c2N(C1=O)[C@H](C(=O)NCc1c[nH]nn1)C3 [Compound C158, (2S,5S)-5-[(2S,3S)-2-(2-Benzo[b]thiophen-2-yl-acetylamino)-3-methyl-pentanoylamino]-4-oxo-1,2,4,5,6,7-hexahydro-azepino[3,2,1-hi]indole-2-carboxylic acid (1H-[1,2,3]triazol-4-ylmethyl)-amide] | 1 to 300 nM |
| CC[C@H](C)[C@H](NC(=O)Cc1cc2ccccc2o1)C(=O)N[C@H]1CCc2cccc3c2N(C1=O)[C@H](C(=O)NCc1c[nH]nn1)C3 [Compound C159, (2S,5S)-5-[(2S,3S)-2-(2-Benzofuran-2-yl-acetylamino)-3-methyl-pentanoylamino]-4-oxo-1,2,4,5,6,7-hexahydro-azepino[3,2,1-hi]indole-2-carboxylic acid (1H-[1,2,3]triazol-4-ylmethyl)-amide] | 1 to 300 nM |
| CC[C@H](C)[C@H](NC(=O)Cc1nc2ccccc2o1)C(=O)N[C@H]1CCc2cccc3c2N(C1=O)[C@H](C(=O)NCc1c[nH]nn1)C3 [Compound C160, (2S,5S)-5-[(2S,3S)-2-(2-Benzooxazol-2-yl-acetylamino)-3-methyl-pentanoylamino]-4-oxo-1,2,4,5,6,7-hexahydro-azepino[3,2,1-hi]indole-2-carboxylic acid (1H-[1,2,3]triazol-4-ylmethyl)-amide] | 1 to 300 nM |
| CC[C@H](C)[C@H](NC(=O)Cc1cc2ccccc2[nH]1)C(=O)N[C@H]1CCc2cccc3c2N(C1=O)[C@H](C(=O)NCc1c[nH]nn1)C3 [Compound C161, (2S,5S)-5-[(2S,3S)-2-(2-1H-Indol-2-yl-acetylamino)-3-methyl-pentanoylamino]-4-oxo-1,2,4,5,6,7-hexahydro-azepino[3,2,1-hi]indole-2-carboxylicacid (1H-[1,2,3]triazol-4-ylmethyl)-amide] | 1 to 300 nM |
| CC[C@H](C)[C@H](NC(=O)Cc1nc2ccccc2[nH]1)C(=O)N[C@H]1CCc2cccc3c2N(C1=O)[C@H](C(=O)NCc1c[nH]nn1)C3 [Compound C162, (2S,5S)-5-[(2S,3S)-2-(2-1H-Benzoimidazol-2-yl-acetylamino)-3-methyl-pentanoylamino]-4-oxo-1,2,4,5,6,7-hexahydro-azepino[3,2,1-hi]indole-2-carboxylic acid (1H-[1,2,3]triazol-4-ylmethyl)-amide] | 1 to 300 nM |
| CC[C@H](C)[C@H](NC(=O)COCCF)C(=O)N[C@H]1CCc2cccc3c2N(C1=O)[C@H](C(=O)NCc1ncn[nH]1)C3 [Compound C163, (2S,5S)-5-{(2S,3S)-2-[2-(2-Fluoro-ethoxy)-acetylamino]-3-methyl-pentanoylamino}-4-oxo-1,2,4,5,6,7-hexahydro-azepino[3,2,1-hi]indole-2-carboxylic acid (2H-[1,2,4]triazol-3-ylmethyl)-amide] | > 5000 nM |
| CC[C@H](C)[C@H](NC(=O)COCCF)C(=O)N[C@H]1CCc2cccc3c2N(C1=O)[C@H](C(=O)NCc1nc(O)n[nH]1)C3 [Compound C164, (2S,5S)-5-{(2S,3S)-2-[2-(2-Fluoro-ethoxy)-acetylamino]-3-methyl-pentanoylamino}-4-oxo-1,2,4,5,6,7-hexahydro-azepino[3,2,1-hi]indole-2-carboxylic acid (5-hydroxy-2H-[1,2,4]triazol-3-ylmethyl)-amide] | > 5000 nM |
| CC[C@H](C)[C@H](NC(=O)COCCF)C(=O)N[C@H]1CCc2cccc3c2N(C1=O)[C@H](C(=O)NCc1cc(O)n[nH]1)C3 [Compound C166, (2S,5S)-5-{(2S,3S)-2-[2-(2-Fluoro-ethoxy)-acetylamino]-3-methyl-pentanoylamino}-4-oxo-1,2,4,5,6,7-hexahydro-azepino[3,2,1-hi]indole-2-carboxylic acid (5-hydroxy-2H-pyrazol-3-ylmethyl)-amide] | 1000 to 5000 nM |
| CC[C@H](C)[C@H](NC(=O)COCCF)C(=O)N[C@H]1CCc2cccc3c2N(C1=O)[C@H](C(=O)NCB(O)O)C3 [Compound C170, {[((2S,5S)-5-{(2S,3S)-2-[2-(2-Fluoro-ethoxy)-acetylamino]-3-methyl-pentanoylamino}-4-oxo-1,2,4,5,6,7-hexahydro-azepino[3,2,1-hi]indole-2-carbonyl)-amino]-methyl}-boronic acid] | 301 to 1000 nM |
| CC[C@H](C)[C@H](NC(=O)COCCF)C(=O)N[C@H]1CS(=O)(=O)c2cccc3c2N(C1=O)[C@H](C(=O)NCc1c[nH]nn1)C3 [Compound C172, (1S,8R)-8-{(2S,3S)-2-[2-(2-Fluoro-ethoxy)-acetylamino]-3-methyl-pentanoylamino}-6,6,9-trioxo-1,2,6,7,8,9-hexahydro-6lambda*6*- thia-9a-aza-benzo[cd]azulene-1-carboxylic acid (1H-[1,2,3]triazol-4-ylmethyl)-amide] | 301 to 1000 nM |
| CC[C@H](C)[C@H](NC(=O)CC1Cc2ccccc2O1)C(=O)N[C@H]1CCc2cccc3c2N(C1=O)[C@H](C(=O)NCc1c[nH]nn1)C3 (stereo partly drawn) [Compound C173, (2S,5S)-5-[(2S,3S)-2-(2-2,3-Dihydro-benzofuran-2-yl-acetylamino)-3-methyl-pentanoylamino]-4-oxo-1,2,4,5,6,7-hexahydro-azepino[3,2,1-hi]indole-2-carboxylic acid (1H-[1,2,3]triazol-4-ylmethyl)-amide] | 1 to 300 nM |
